Experimental data reported in patent US20240196886A1, “ANTIBACTERIAL AND/OR ANTIVIRAL COATINGS” (CODIKOAT LTD, priority 2021, published 2024).

Tests used:
cell lines [1] = tested on: cell lines
cell lines [2] = experiment: Toxicity on cell lines seen in the antiviral experiments; conditions: 8% PVA + glutaraldehyde coatings
murine coronavirus (MHV) = experiment: Powdered alcohol mixed directly with MHV, L929 cell infection/TCID50 assay; format: cell-based, Mouse Hepatitis Virus; conditions: FIG. 6; CD encapsulated ethanol vs gamma-CD alone
Experimental: The powders obtained in Example 1 were tested for their effectiveness in inactivating the murine coronavirus in 5 minutes using L929 cells. L929 cells at 5×10^5 cells/ml concentration in 100 μl volume in a 96 wells format were used. First, the virus stock was diluted 10 times in 1×PBS. Then 20 μl MHV (multiplicity of infection [MOI] 3.0) was mixed with 10 mg and 20 mg powdered alcohol for 5 minutes at room temperature with repetitive pipetting to maximise the interaction between the virus and powdered alcohol. To mitigate the potential side effects of the powdered alcohol on L929 cells, powder treated cell culture media (cDMEM) was prepared as a control. After recovering the virus and the control media from the mixture, treated samples (triplicates) were immediately diluted in 20 μl cDMEM, thereby bringing the final MOI to 1.0. In a 96 wells format, 8 serial dilutions (DF=5.0) were prepared per sample together with non-treated virus and cell culture media (cDMEM) as positive and negative controls, respectively. Cell infection phenotype as cell death and cytopathic effect (CPE) was observed under a benchtop light microscope (20× magnification) at 24-, 48- and 72-hours post infection (hpi) intervals (FIG. 4). TCID50/ml values per experiment were calculated at 72 hpi using Reed&Muench Calculator. […]

OCl [HOCl, hypochlorous acid] was tested, and the “cell death and toxicity” value (cell lines [1]) was “cell death and toxicity were observed”.
For O=CCCCC=O [glutaraldehyde], the “glutaraldehyde concentration above which toxicity on cell lines was observed” value (cell lines [2]) was “higher than 0.7%”.
Compound OC[C@H]1O[C@@H]2O[C@H]3[C@H](O)[C@@H](O)[C@@H](O[C@H]4[C@H](O)[C@@H](O)[C@@H](O[C@H]5[C@H](O)[C@@H](O)[C@@H](O[C@H]6[C@H](O)[C@@H](O)[C@@H](O[C@H]7[C@H](O)[C@@H](O)[C@@H](O[C@H]8[C@H](O)[C@@H](O)[C@@H](O[C@H]9[C@H](O)[C@@H](O)[C@@H](O[C@H]1[C@H](O)[C@H]2O)O[C@@H]9CO)O[C@@H]8CO)O[C@@H]7CO)O[C@@H]6CO)O[C@@H]5CO)O[C@@H]4CO)O[C@@H]3CO [CD alone, gamma-cyclodextrin] has a log reduction (murine coronavirus (MHV)) of 1 log.
